Literature values, collected in US8333959B2, “Ex-vivo application of solid microparticulate therapeutic agents” (Baxter International Inc., priority 2004, dated 2012).

Test system: HIV-infected macrophages

For `CC(C)(C)NC(=O)[C@@H]1C[C@@H]2CCCC[C@@H]2CN1C[C@@H](O)[C@H](Cc1ccccc1)NC(=O)[C@H](CC(N)=O)NC(=O)c1ccc2ccccc2n1` [saquinavir], the “antiviral activity in HIV-infected macrophages” value (HIV-infected macrophages, in vitro, solution vs nanoparticulate formulation) is given as “little antiviral activity” and the “antiviral activity in chronically HIV-infected macrophages” value (concentration of 100 nM, chronically HIV-infected macrophages) is given as “completely inactive”.
